# Patent publication US20220202899A1, “COMPOSITION FOR PREVENTION OR TREATMENT OF HAIR LOSS INCLUDING HAPLN1” (HAPLNSCIENCE INC., priority 2019, published 2022)
# Columns and labels:
# TβRII [1] = assay: TβRII protein in human hair germinal matrix cells deficient in endogenous HA (4-MU); format: cell-based; settings: 4-MU-treated cells; HAPLN1 25 ng/mL; TGF-β2 2 ng/mL
# Protocol: (§1) 4-MU (4-methylumbelliferone) is an inhibitor of HA-producing hyaluronan synthase 2 (HAS2), which produces HA. In order to confirm the effect of HA produced in cells, HA production in cells was inhibited using 4-MU.
# (§2) The human hair germinal matrix cells, in which the endogenous HA was inhibited by treating 4-MU, were dispensed into a poly-D-lysine 6-well plate at a concentration of 5.0×10^4 per well and cultured for 24 hours. After 24 hours, the medium was removed and replaced with a new serum-free medium. HAPLN1 was treated with 25 ng/mL, and after 1 hour, TGF-β2 (2 ng/mL) was treated. After 23 hours, cells were collected, a lysis buffer (25 mM Tris-HCl, 1 mM EDTA, 0.1% Triton-X100, phosphatase inhibitor, and protease inhibitor) was added, and all the cells were broken through sonication. HAS2 and TβRII in the sample were measured using Western blotting. The optical density of each of HAS2 and TβRII was compared to that of GAPDH using a densitometer.
# HAS2 = HAS2 protein in human hair germinal matrix cells deficient in endogenous HA (4-MU); format: cell-based; settings: 4-MU-treated cells; HAPLN1 25 ng/mL; TGF-β2 2 ng/mL
# Protocol: as §1, §2
# TβRII [2] = assay: TβRII protein after HAPLN1 and/or HA in CD44-deficient human hair germinal matrix cells; format: cell-based; settings: after CD44 siRNA; HAPLN1 25 ng/mL and/or HA 25 μg/mL; TGF-β2 2 ng/mL, 23 hours
# Protocol: (§3) The human hair germinal matrix cells, which were made to be deficient in CD44 by using CD44 siRNA, were dispensed into a poly-D-lysine 6-well plate at a concentration of 5.0×10^4 per well and cultured for 24 hours. After 24 hours, the medium was removed and replaced with a low-serum medium. CD44 siRNA and scrambled siRNA were added at a concentration of 25 pmol per well and incubated for 24 hours. After the siRNA and the medium were all removed, the medium was replaced with a serum-free medium having HAPLN1 (25 ng/mL) or HA (25 μg/mL) added thereto, and cultured for 1 hour. TGF-β2 (2 ng/mL) was treated and incubated for 23 hours. After collecting cells, a lysis buffer (25 mM Tris-HCl, 1 mM EDTA, 0.1% Triton-X100, phosphatase inhibitor, and protease inhibitor) was added, and all the cells were broken through sonication. TβRII in the sample was measured using Western blotting. The optical density of TβRII was compared to that of GAPDH using a densitometer.
# TβRII [3] = assay: TβRII protein after exogenous HAPLN1 and/or HA in endogenous HAPLN1-deficient human hair germinal matrix cells; format: cell-based; settings: after HAPLN1 siRNA; HAPLN1 25 ng/mL and/or HA 25 μg/mL; TGF-β2 2 ng/mL, 23 hours
# Protocol: as §3, with “cells” for “cells, which were made to be deficient in CD44 by using CD44 siRNA,”, “HAPLN1” for “CD44”
# cell membrane TβRII = assay: Cell membrane TβRII protein (biotin labelling, immunoprecipitation, Western blotting); format: cell-based, human; settings: HAPLN1 25 ng/mL and/or HA 25 μg/mL; TGF-β2 2 ng/mL
# Protocol: All proteins present in the cell membrane were labeled with biotin, and immunoprecipitation was performed with a biotin antibody to isolate only the cell membrane protein. In order to confirm changes in the ratio of TβRII among cell membrane proteins, Western blotting was performed. The specific experimental method will now be described.
# Human hair germinal matrix cells were dispensed into a poly-D-lysine 100 mm dish at a concentration of 2.7×10^6 and cultured for 24 hours. After 24 hours, the medium was removed and replaced with a new serum-free medium. HAPLN1 was treated with 25 ng/mL and HA with 25 μg/mL, and after 1 hour, TGF-β2 (2 ng/mL) was treated. To label biotin after 23 hours, EZ-Link™ Sulfo-NHS-LC-Biotin (Thermo Fisher Scientific, MA, USA) was treated at a concentration of 250 μg/mL and incubated at 4° C. for 1 hour. The biotin labeling reaction was terminated by treatment with 50 mM Tris-HCl. After collecting cells, a lysis buffer (50 mM Tris-HCl, 150 mM NaCl, 1% NP-40, phosphatase inhibitor, and protease inhibitor) was added, and all the cells were broken through sonication. Cell membrane proteins were isolated by performing immunoprecipitation experiments using anti-biotin antibodies. TβRII in the isolated membrane protein sample was measured using Western blotting. The optical density of TβRII was compared to that of GAPDH using a densitometer.
# p-MEK1/2 = p-MEK1/2 in human hair germinal matrix cells stimulated with TGF-β2 (Western blotting); format: cell-based; settings: HAPLN1 25 ng/mL and/or HA 25 μg/mL; TGF-β2 2 ng/mL, 1 hour
# Protocol: (§4) Human hair germinal matrix cells were dispensed into a poly-D-lysine 6-well plate at a concentration of 5.0×10^4 per well and cultured for 24 hours. After 24 hours, the medium was removed and replaced with a new serum-free medium. HAPLN1 was treated with 25 ng/mL and HA with 25 μg/mL, incubated for 23 hours, and then stimulated with TGF-β2 (2 ng/mL) for 1 hour. After collecting cells, a lysis buffer (25 mM Tris-HCl, 1 mM EDTA, 0.1% Triton-X100, phosphatase inhibitor, and protease inhibitor) was added, and all the cells were broken through sonication. p-ERK1/2, p-Smad2, p-MEK1/2, and p-c-Raf in the sample were measured using Western blotting. Optical densities of p-ERK1/2, p-Smad2, p-MEK1/2, and p-c-Raf were compared to those of ERK1/2, Smad2/3, MEK1, and c-Raf using a densitometer. Here, ERK1/2, Smad2/3, MEK1, and c-Raf were used as loading controls.
# p-c-Raf = p-c-Raf in human hair germinal matrix cells stimulated with TGF-β2 (Western blotting); format: cell-based; settings: HAPLN1 25 ng/mL and/or HA 25 μg/mL; TGF-β2 2 ng/mL, 1 hour
# Protocol: as §4
# [4] = system: human hair germinal matrix cells; assay: Cell proliferation of human hair germinal matrix cells, CCK-8 (Example 10); format: cell-based; settings: HAPLN1 25 ng/mL and/or HA 25 μg/mL; TGF-β2 2 ng/mL, 23 hours
# Protocol: Human hair germinal matrix cells were dispensed into a poly-D-lysine 96-well plate at a concentration of 2.0×10^4 per well and cultured for 24 hours. After 24 hours, the medium was removed and replaced with a new serum-free medium. HAPLN1 was treated with 25 ng/mL and HA with 25 μg/mL, incubated for 1 hour, and then stimulated with TGF-β2 (2 ng/mL) for 23 hours. CCK-8 (Enzo Biochem, NY, USA) was treated and incubated at 37° C. for 1 hour.
# p-ERK1/2 = p-ERK1/2 in human hair germinal matrix cells stimulated with TGF-β2 (Western blotting); format: cell-based; settings: HAPLN1 25 ng/mL and/or HA 25 μg/mL, 23 hours; TGF-β2 2 ng/mL, 1 hour
# Protocol: as §4
# TβRII [5] = assay: TβRII protein in human hair germinal matrix cells treated with HAPLN1 and/or HA, then TGF-β2 (Western blotting); format: cell-based; settings: HAPLN1 25 ng/mL or HA 25 μg/mL alone; TGF-β2 2 ng/mL after 1 hour; 23 hours
# Protocol: as §2, with “Human” for “The human”, “cells” for “cells, in which the endogenous HA was inhibited by treating 4-MU,”, “ng/mL, HA was treated with 25 μg/mL,” for “ng/mL,”, “TβRI” for “HAS2”, “of” for “of each of HAS2 and”
# p-Smad2 = p-Smad2 in human hair germinal matrix cells stimulated with TGF-β2 (Western blotting); format: cell-based; settings: HAPLN1 25 ng/mL and/or HA 25 μg/mL; TGF-β2 2 ng/mL, 1 hour
# Protocol: as §4
Molecule,TβRII level (TβRII [1]),HAS2 level (HAS2),TβRII protein in CD44-deficient cells (TβRII [2]),TβRII protein in endogenous HAPLN1-deficient cells (TβRII [3]),cell membrane TβRII protein concentration (cell membrane TβRII),MEK1/2 activity (p-MEK1/2 compared to MEK1) (p-MEK1/2),c-Raf activity (p-c-Raf compared to c-Raf) (p-c-Raf),cell proliferation (absorbance at 450 nm) compared to the control group [4],ERK1/2 signaling (p-ERK1/2 compared to ERK1/2) (p-ERK1/2),TβRII protein (optical density compared to GAPDH) (TβRII [5]),phosphorylation of Smad2 (p-Smad2)
"Cc1cc(=O)oc2cc(O)ccc12 [4-MU, 4-methylumbelliferone, reference compound]",decreased,decreased,,,,,,,,,
"Hyaluronic acid [HA, reference compound]",,,not confirmed that TβRII was recovered,recovered,increased,increased activities,increased activities,promoted,activated,increased,no change
